Key:
pAKT in JIMT-1 cells = test: pAKT IC50 in JIMT-1 cancer cell line; format: cell-based; details: Homo sapiens; JIMT-1, breast; HER2 amplification, PIK3CA C420R
Protocol: (§1) The pAKT inhibition of Compound 44 or Compound 58 in a diverse panel of 282 human tumor cell lines from different cancer indications with varied genetic backgrounds was evaluated to determine factors that may influence sensitivity and resistance (FIG. 2A). PI3K pathway signaling in a 2D culture system was assessed by measuring pAKT (Ser473) protein levels following 4 hours of treatment with nine concentrations of Compound 44 or Compound 58 by homogeneous time resolved fluorescence (HTRF). The pAKT IC50 of each cell line was calculated using GraphPad prism software.

[1] = target: Cys242 in human PIK3CA (157-299) (Homo sapiens (Human), UniProt P42336); test: Covalent modification assay using MALDI-TOF MS; format: biochemical; details: 4 h reaction time point; 3.33 μM protein target, 1:7.5 protein to compound ratio (compounds 1-852)
Chain of Cys242 in human PIK3CA (157-299) (P42336 157-299): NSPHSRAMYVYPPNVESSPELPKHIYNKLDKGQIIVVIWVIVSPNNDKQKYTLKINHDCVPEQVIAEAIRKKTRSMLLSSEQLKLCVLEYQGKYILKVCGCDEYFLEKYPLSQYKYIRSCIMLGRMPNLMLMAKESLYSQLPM
Outline: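 PIK3CA (157-299) at 3.33 μM or 1 μM in 20 mM HEPES, 150 mM NaCl, 2 mM MgCl2, pH 7.3 was incubated with compound (from 10 mM DMSO stocks) in the dark at room temperature for 15 min, 30 min, 2 h or 4 h. Linear-mode MALDI-TOF peak heights gave percent modification.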

[2] = Pharmacokinetic profile in male CD-1 mice; format: in vivo; details: mouse, plasma
Protocol: The pharmacokinetic profile of Compound 58 was evaluated in mice (FIG. 3A). Male CD-1 mice (3 mice per group) were administered a single dose of Compound 58 at 3 mg/kg by intravenous (IV) injection or 7, 30, 100, or 300 mg/kg by oral gavage. Blood was collected at 0.0833 (IV only), 0.25, 0.5, 1, 2, 4, 8, 12, and/or 24 hours after each dose and processed to plasma. Compound 58 concentrations were then determined with LC-MS/MS. […] The AUCinf following oral doses of 7, 30, 100, and 300 mg/kg was 1418, 8453, 34,866, and 78,735 hr*ng/mL, respectively.

[3] = test system: pAKT (Ser473) in 282 human tumor cell lines; test: pAKT (Ser473) HTRF in panel of 282 human tumor cell lines; format: cell-based; details: 4 hours of treatment, Compound 44 or Compound 58; for screened KRAS G12X cell lines that are responders (pAKT IC50<100 nM): 29 of 50 KRAS G12X cell lines; for screened cell lines that are responders (pAKT IC50<100 nM): 105 of 282 cell lines
Protocol: as §1, with “software. 105 cell lines had pAKT IC50<100 nM and were considered sensitive to Compound 44 or Compound 58. […] Further, 29 or 50 (58%) of screen KRAS G12X cell lines are responders.” for “software.”

With `C=CC(=O)N1CCc2nc(-c3nc(-c4ccc5c(c4)CCNC5)c4ccsc4c3-c3ccc(F)cc3OCCOC)sc2C1` [Compound 58, 1-[2-[7-[4-fluoro-2-(2-methoxyethoxy)phenyl]-4-(1,2,3,4-tetrahydroisoquinolin-6-yl)thieno[3,2-c]pyridin-6-yl]-6,7-dihydro-4H-thiazolo[5,4-c]pyridin-5-yl]prop-2-en-1-one] the IC50 (pAKT in JIMT-1 cells) was 51 nM, the “% of modification” value [1] was “A (percent of modification of PIK3CA protein ≥75%)” and the bioavailability ([2]; oral dose 7 mg/kg vs 3 mg/kg IV) was 51%. For the same compound, the bioavailability ([2]; oral dose 30 mg/kg vs 3 mg/kg IV) was 71%, the bioavailability ([2]; oral dose 100 mg/kg vs 3 mg/kg IV) was 88% and the bioavailability ([2]; oral dose 300 mg/kg vs 3 mg/kg IV) was 66%. For the same compound, the AUC(0-inf) ([2]; single oral dose 7 mg/kg) was 1420 ng·h/mL, the Cmax ([2]; single oral dose 7 mg/kg) was 166 ng/mL and the AUC(0-inf) ([2]; single oral dose 30 mg/kg) was 8450 ng·h/mL. It also gave a Cmax ([2]; single oral dose 30 mg/kg) of 1080 ng/mL, an AUC(0-inf) ([2]; single oral dose 100 mg/kg) of 34900 ng·h/mL and a Cmax ([2]; single oral dose 100 mg/kg) of 3460 ng/mL. The AUC(0-inf) ([2]; single oral dose 300 mg/kg) was 78700 ng·h/mL, the Cmax ([2]; single oral dose 300 mg/kg) was 3260 ng/mL and the “screened KRAS G12X cell lines that are responders (pAKT IC50<100 nM)” value [3] was 58%. For the same compound, the “screened cell lines that are responders (pAKT IC50<100 nM)” value [3] was 37%.

For `C=CC(=O)N1CCc2ccc(-c3nc(-c4ccc5c(c4)CCNC5)c4ccsc4c3-c3ccc(F)cc3OCCOC)cc2C1` [compound 42], the “% of modification” value [1] was “A (percent of modification of PIK3CA protein ≥75%)”.

With `C=CC(=O)N1CCCC(n2cc(-c3nc(-c4ccc5c(c4)CCNC5)c4ccsc4c3-c3ccc(F)cc3OCCOC)cn2)C1` (stereo not drawn) [compound 31] the “% of modification” value [1] was “A (percent of modification of PIK3CA protein ≥75%)”.

For `C=CC(=O)Nc1cccc(-c2nc(-c3ccc4c(c3)CCNC4)c3ccsc3c2-c2ccc(F)cc2OCCOC)c1` [Compound 12, N-[3-[7-[4-fluoro-2-(2-methoxyethoxy)phenyl]-4-(1,2,3,4-tetrahydroisoquinolin-6-yl)thieno[3,2-c]pyridin-6-yl]phenyl]prop-2-enamide], the “% of modification” value [1] was “A (percent of modification of PIK3CA protein ≥75%)”.

For `C=CC(=O)Nc1cccc(-c2nc(-c3ccc4c(c3)CNC(=O)C4)c3ccsc3c2-c2ccc(F)cc2OCCOC)c1` [compound 51], the “% of modification” value [1] was “A (percent of modification of PIK3CA protein ≥75%)”.

With `C=CC(=O)N1CC[C@H](n2cc(-c3nc(-c4ccc5c(c4)CCNC5)c4ccsc4c3-c3ccc(F)cc3OCCOC)cn2)C1` [compound 47] the “% of modification” value [1] was “A (percent of modification of PIK3CA protein ≥75%)”.

With `C=CC(=O)N1CC(n2cc(-c3nc(-c4ccc5c(c4)CCNC5)c4ccsc4c3-c3ccc(F)cc3OCCOC)cn2)C1` [Compound 44, 1-[3-[4-[7-[4-fluoro-2-(2-methoxyethoxy)phenyl]-4-(1,2,3,4-tetrahydroisoquinolin-6-yl)thieno[3,2-c]pyridin-6-yl]pyrazol-1-yl]azetidin-1-yl]prop-2-en-1-one] the “% of modification” value [1] was “A (percent of modification of PIK3CA protein ≥75%)”, the “screened KRAS G12X cell lines that are responders (pAKT IC50<100 nM)” value [3] was 58% and the “screened cell lines that are responders (pAKT IC50<100 nM)” value [3] was 37%.
